Assay results published in patent US12458631B2, “Use of dihydroberberine or its derivatives for anti-glycation” (NANJING NUTRABUILDING BIO-TECH CO., LTD., priority 2022, dated 2025).

Assays:
Format in all cases: in vivo, Kunming mice
[1] = tested on: skin collagen fibers; assay: Masson staining, quantification of skin collagen fibers in D-galactose-injected mice; conditions: 14th week
Description: (§1) Six-week-old, male, Kunming mice, weighed about 30±2 g, were obtained from Cavens Lab Animal (Changzhou, China) and housed in a controlled room (25±2° C., 60% relative humidity, 12 h light/dark cycle) with free access to water and standard laboratory diet. After an acclimation period (1 week), mice were randomly divided into 3 groups of 9 animals. Choose the mice's back skin as the experimental observation area, use a razor to shave off the back hair of the mice. Apply 5% sodium sulfide solution to the back of the mice to remove the hair. Then all mice were injected subcutaneously with the same volume of D-galactose (1000 mg/kg), once a day for 8 weeks. During the entire process of the experiment, the daily food intake and weight of mice were recorded every day, and the D-galactose injection dose was adjusted following the weight change. The 3 groups of 9 animals were (1) non-supplement group (Con, Group 1); (2) DHB supplement group (DHB, 100 mg/kg, Group 2); (3) DHB supplement group (DHB, 200 mg/kg, Group 3). […] To further examine the content of skin collagen fibers, this was determined by Masson's staining. Then quantitation of skin epidermis and dermis, and collagen were calculated based on the results of observation.

[2] = tested on: MDA; assay: MDA content in skin of D-galactose-injected mice (kit/ELISA); conditions: group 3, DHB 200 mg/kg s.c., 14th week
Description: as §1, with “The levels of H2O2, MDA, SOD, CAT, GSH, and GSH-Px in” for “To further examine”, “skin were detected with relative kits as reference. […] Quantitative polymerase chain reaction (QPCR) and western blot methods were used to measure the expression” for “content”, “MMP-1 in” for “skin collagen fibers, this was determined by Masson's staining. Then quantitation of skin epidermis and dermis, and collagen were calculated based on”, “skin.” for “results of observation.”

[3] = tested on: GSH; assay: GSH activity in skin of D-galactose-injected mice; conditions: DHB groups (100 and 200 mg/kg s.c.), 14th week
Description: as §1, with “The levels of H2O2, MDA, SOD, CAT, GSH, and GSH-Px in” for “To further examine”, “skin were detected with relative kits as reference. […] Quantitative polymerase chain reaction (QPCR) and western blot methods were used to measure the expression” for “content”, “MMP-1 in” for “skin collagen fibers, this was determined by Masson's staining. Then quantitation of skin epidermis and dermis, and collagen were calculated based on”, “skin.” for “results of observation.”

[4] = tested on: H2O2; assay: H2O2 content in skin homogenate of D-galactose-injected mice; conditions: 14th week
Description: as §1, with “The levels of H2O2, MDA, SOD, CAT, GSH, and GSH-Px in” for “To further examine”, “skin were detected with relative kits as reference. […] Quantitative polymerase chain reaction (QPCR) and western blot methods were used to measure the expression” for “content”, “MMP-1 in” for “skin collagen fibers, this was determined by Masson's staining. Then quantitation of skin epidermis and dermis, and collagen were calculated based on”, “skin.” for “results of observation.”

[5] = tested on: skin epidermis and dermis; assay: H&E staining, quantitation of skin epidermis and dermis in D-galactose-injected mice; conditions: 14th week
Description: Six-week-old, male, Kunming mice, weighed about 30±2 g, were obtained from Cavens Lab Animal (Changzhou, China) and housed in a controlled room (25±2° C., 60% relative humidity, 12 h light/dark cycle) with free access to water and standard laboratory diet. After an acclimation period (1 week), mice were randomly divided into 3 groups of 9 animals. Choose the mice's back skin as the experimental observation area, use a razor to shave off the back hair of the mice. Apply 5% sodium sulfide solution to the back of the mice to remove the hair. Then all mice were injected subcutaneously with the same volume of D-galactose (1000 mg/kg), once a day for 8 weeks. During the entire process of the experiment, the daily food intake and weight of mice were recorded every day, and the D-galactose injection dose was adjusted following the weight change. The 3 groups of 9 animals were (1) non-supplement group (Con, Group 1); (2) DHB supplement group (DHB, 100 mg/kg, Group 2); (3) DHB supplement group (DHB, 200 mg/kg, Group 3). Mice in group 2 and group 3 were injected subcutaneously (s.c.) into their back skins with the corresponding concentrations of DHB before each major meal once daily for 6 weeks. All mice were sacrificed following 6 weeks at the end of the experiment. The skin tissue was divided into three parts, the first part was stored at −80° C. until assays were performed, the second part was immediately collected, weighed and homogenized (4° C.; 3500 rpm for 15 min) for biochemical and histological analyses, and the third part was fixed in 10% formalin until further use. Hematoxylin-eosin staining (H&E) and Masson staining were performed on skin samples. Skins were fixed in 10% formalin 48 h at room temperature and paraffin-embedded afterward. With H&E staining, skins were sliced into 4 μm, dehydrated of gradient ethanol, and stained with hematoxylin and eosin. For Masson staining, sliced skins were stained with a Masson kit as the instruction said. H&E staining to observe the skin epidermis and dermis structure change and analyze stained collagen fibers by Image-Pro Plus 6.0 in the perspective of 400 times to detect the percentage of collagen fibers area. To further examine the content of skin collagen fibers, this was determined by Masson's staining. Then quantitation of skin epidermis and dermis, and collagen were calculated based on the results of observation.

[6] = tested on: SOD; assay: SOD activity in skin of D-galactose-injected mice; conditions: 14th week
Description: as §1, with “The levels of H2O2, MDA, SOD, CAT, GSH, and GSH-Px in” for “To further examine”, “skin were detected with relative kits as reference. […] Quantitative polymerase chain reaction (QPCR) and western blot methods were used to measure the expression” for “content”, “MMP-1 in” for “skin collagen fibers, this was determined by Masson's staining. Then quantitation of skin epidermis and dermis, and collagen were calculated based on”, “skin.” for “results of observation.”

[7] = Fasting blood glucose level by glucometer in D-galactose-injected mice; conditions: for blood glucose level decreased compared to the non-supplement group: 14th week
Description: Six-week-old, male, Kunming mice, weighed about 30±2 g, were obtained from Cavens Lab Animal (Changzhou, China) and housed in a controlled room (25±2° C., 60% relative humidity, 12 h light/dark cycle) with free access to water and standard laboratory diet. After an acclimation period (1 week), mice were randomly divided into 3 groups of 9 animals. Choose the mice's back skin as the experimental observation area, use a razor to shave off the back hair of the mice. Apply 5% sodium sulfide solution to the back of the mice to remove the hair. Then all mice were injected subcutaneously with the same volume of D-galactose (1000 mg/kg), once a day for 8 weeks. During the entire process of the experiment, the daily food intake and weight of mice were recorded every day, and the D-galactose injection dose was adjusted following the weight change. The 3 groups of 9 animals were (1) non-supplement group (Con, Group 1); (2) DHB supplement group (DHB, 100 mg/kg, Group 2); (3) DHB supplement group (DHB, 200 mg/kg, Group 3). Mice in group 2 and group 3 were injected subcutaneously (s.c.) into their back skins with the corresponding concentrations of DHB before each major meal once daily for 6 weeks. When all mice were on fasting, collect approximately 10 μL of blood by the tail nick for 3 times, at the beginning of the trial (0 week), after the D-galactose injection (8th week), and at the end of the trial (14th week). Use the glucometer to measure the glucose level.

[8] = tested on: CAT; assay: CAT activity in skin of D-galactose-injected mice; conditions: DHB groups (100 and 200 mg/kg s.c.), 14th week
Description: as §1, with “The levels of H2O2, MDA, SOD, CAT, GSH, and GSH-Px in” for “To further examine”, “skin were detected with relative kits as reference. […] Quantitative polymerase chain reaction (QPCR) and western blot methods were used to measure the expression” for “content”, “MMP-1 in” for “skin collagen fibers, this was determined by Masson's staining. Then quantitation of skin epidermis and dermis, and collagen were calculated based on”, “skin.” for “results of observation.”

[9] = tested on: MMP-1; assay: MMP-1 expression in skin (QPCR and western blot) of D-galactose-injected mice; conditions: 14th week
Description: as §1, with “The levels of H2O2, MDA, SOD, CAT, GSH, and GSH-Px in” for “To further examine”, “skin were detected with relative kits as reference. […] Quantitative polymerase chain reaction (QPCR) and western blot methods were used to measure the expression” for “content”, “MMP-1 in” for “skin collagen fibers, this was determined by Masson's staining. Then quantitation of skin epidermis and dermis, and collagen were calculated based on”, “skin.” for “results of observation.”

[10] = tested on: GSH-Px; assay: GSH-Px activity in skin of D-galactose-injected mice; conditions: 14th week
Description: as §1, with “The levels of H2O2, MDA, SOD, CAT, GSH, and GSH-Px in” for “To further examine”, “skin were detected with relative kits as reference. […] Quantitative polymerase chain reaction (QPCR) and western blot methods were used to measure the expression” for “content”, “MMP-1 in” for “skin collagen fibers, this was determined by Masson's staining. Then quantitation of skin epidermis and dermis, and collagen were calculated based on”, “skin.” for “results of observation.”

[11] = DHB supplemented groups (100 and 200 mg/kg s.c.)
[12] = DHB groups (100 and 200 mg/kg s.c.)

COc1ccc2c(c1OC)CN1CCc3cc4c(cc3C1=C2)OCO4 [DHB, Dihydroberberine]
contents of collagen in the skin tissue compared with the control group ([1]; DHB supplement groups (100 and 200 mg/kg s.c.)): significantly higher | content of collagen in the skin tissue, higher than control group ([1]; higher dose group, DHB 200 mg/kg s.c.): 2.2 times | content of MDA lower than in the control group [2]: 63% | GSH activity after DHB supplementation [3]: significantly improved | H2O2 content decreased compared to the non-supplement group ([4]; group 2, DHB 100 mg/kg s.c.): about 33% | H2O2 content decreased compared to the non-supplement group ([4]; group 3, DHB 200 mg/kg s.c.): ~58% | dermal thickness vs control group [5, 11]: significant thicker | epidermal thickness vs control group [5, 11]: significant thicker | prevention or reduction of dermal thickness decrease ([5]; group 3, DHB 200 mg/kg s.c.): 78% | prevention or reduction of epidermal thickness decrease ([5]; group 3, DHB 200 mg/kg s.c.): 72% | SOD activity after DHB supplementation [6, 12]: significantly improved | SOD increase compared to non-supplementation group ([6]; group 3, DHB 200 mg/kg s.c.): about 2.9 times | blood glucose levels after supplementation [7, 12]: decreased significantly | blood glucose level decreased compared to the non-supplement group ([7]; group 2, DHB 100 mg/kg s.c. once daily for 6 weeks): about 39% | blood glucose level decreased compared to the non-supplement group ([7]; group 3, DHB 200 mg/kg s.c. once daily for 6 weeks): ~44% | CAT activity after DHB supplementation [8]: significantly improved | MMP-1 expression reduced compared to non-supplement group ([9]; group 2, DHB 100 mg/kg s.c.): about 23% | MMP-1 expression reduced compared to non-supplement group ([9]; group 3, DHB 200 mg/kg s.c.): about 51% | GSH-Px activity after DHB supplementation [10, 12]: significantly improved | GASH-Px increase compared to non-supplementation group ([10]; group 3, DHB 200 mg/kg s.c.): ~1.8 times
